Data taken from patent publication US9523097B2, “Engineering rubber production in plants” (The United States of America, as represented by the …, priority 2013, dated 2016).
Like-named read-outs stand apart in the source and are kept apart here.

Columns and labels:
guayule leaf explants = experiment: Resistance of regenerated shoot on media with spectinomycin; type: cell-based, Parthenium argentatum
Description: To confirm whether the guayule explants were resistant to spectinomycin, leaf explants from control plants were cultured on regeneration DKW media that contained 0.75 mg·L^−1 BA and 0.125 mg·L^−1 NAA at various spectinomycin antibiotic levels. Several concentration of spectinomycin (0, 2, 4, 6, 8, 10, 12, 14, 16, 18 and 20 mg·L^−1) was added to the media to confirm the effects of antibiotic concentration on regeneration.

guayule explants = conditions: for Size of Callus with multi shoots: 5-point scale
Description: To evaluate the effect of calcium nitrate on guayule regeneration, guayule explants were cultured on MS basal medium with plant growth regulators (PGRs) (1.0 mg·L^−1 BA and 0.1 mg·L^−1 NAA) and calcium nitrate. […] calcium nitrate concentrations, 0, 100, 250, 500, 750, 1000 and 1500 mg·L^−1, were tested (Table 3). Calcium nitrate was added to the culture medium before adjusting the pH to 5.7, prior to autoclaving. DKW basal medium (0.75 mg·L^−1 BA and 0.25 mg·L^−1 NAA) was used as a control.

CN[C@@H]1[C@H](O)[C@H](NC)[C@H]2O[C@@]3(O)C(=O)C[C@@H](C)O[C@H]3O[C@@H]2[C@H]1O [spectinomycin]
concentration fatal to guayule plants (guayule leaf explants): about 12 mg/L
Callus formation and shoot emergence (guayule leaf explants; 8 mg·L−1, DKW regeneration medium): not affected
Callus formation and shoot emergence (guayule leaf explants; 10 mg·L−1, DKW regeneration medium): significantly reduced
Callus formation and shoot emergence (guayule leaf explants; 12 mg·L−1 or higher, DKW regeneration medium): completely inhibited

O.O.O.O.O=[N+]([O-])[O-].O=[N+]([O-])[O-].[Ca+2] [Calcium Nitrate, calcium nitrate tetrahydrate]
Size of Callus with multi shoots (guayule explants; 100 mg·L−1, DKW with 0.75 mg·L−1 BA and 0.25 mg·L−1 NAA): 3.0b
Number of elongated shoots (guayule explants; 100 mg·L−1, DKW with 0.75 mg·L−1 BA and 0.25 mg·L−1 NAA, per total explants): 6/30
Size of Callus with multi shoots (guayule explants; 100 mg·L−1, MS with 1.0 mg·L−1 BA and 0.1 mg·L−1 NAA): 4.5a
Number of elongated shoots (guayule explants; 100 mg·L−1, MS with 1.0 mg·L−1 BA and 0.1 mg·L−1 NAA, per total explants): 3/30
Size of Callus with multi shoots (guayule explants; 250 mg·L−1, DKW with BA/NAA): 2.9b
Number of elongated shoots (guayule explants; 250 mg·L−1, DKW with BA/NAA, per total explants): 3/30
Size of Callus with multi shoots (guayule explants; 250 mg·L−1, MS with BA/NAA): 4.4a
Number of elongated shoots (guayule explants; 250 mg·L−1, MS with BA/NAA, per total explants): 13/30
Size of Callus with multi shoots (guayule explants; 500 mg·L−1, DKW with BA/NAA): 2.2bc
Number of elongated shoots (guayule explants; 500 mg·L−1, DKW with BA/NAA, per total explants): 0/30
Size of Callus with multi shoots (guayule explants; 500 mg·L−1, MS with BA/NAA): 4.1ab
Number of elongated shoots (guayule explants; 500 mg·L−1, MS with BA/NAA, per total explants): 6/30
Size of Callus with multi shoots (guayule explants; 1000 mg·L−1, DKW with BA/NAA): 2.0c
Number of elongated shoots (guayule explants; 1000 mg·L−1, DKW with BA/NAA, per total explants): 0/30
Size of Callus with multi shoots (guayule explants; 1000 mg·L−1, MS with BA/NAA): 3.6c
Number of elongated shoots (guayule explants; 1000 mg·L−1, MS with BA/NAA, per total explants): 0/30
Size of Callus with multi shoots (guayule explants; 1500 mg·L−1, DKW with BA/NAA): 1.7 days
Number of elongated shoots (guayule explants; 1500 mg·L−1, DKW with BA/NAA, per total explants): 0/30
Size of Callus with multi shoots (guayule explants; 1500 mg·L−1, MS with BA/NAA): 2.1 days
Number of elongated shoots (guayule explants; 1500 mg·L−1, MS with BA/NAA, per total explants): 0/30
effect on elongated shoots (guayule explants; higher concentrations): negative effect
Number of elongated shoots (guayule explants; moderate concentrations (0, 100, 250, 500 and 1000 mg·L−1), MS and DKW medium): significantly improved
